The source of these data is patent US11458123B2 (Arvinas, Inc., priority 2016, dated 2022).

The test system of one experiment is tau protein. The experiment is described as follows: Tau protein in vitro degradation assay (Western blot, Tau-13 antibody). The format is cell-based, human. As to conditions: SK-N-SH cells; 72 hours of incubation; tested at 300 nM, 100 nM, 33 nM and 11 nM; Western blot, Tau-13 antibody. In outline:
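Tau degradation read by Tau-13 Western blot (detects all human tau forms) of SDS-PAGE-resolved lysates from SK-N-SH cells. Cells were plated at least 18 h before 72 h exposure to PROTACs at either 1000/300/100 nM or 300/100/33/11 nM.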
In general terms: In western blotting, separated proteins are transferred to a membrane and probed.
As for `O=C1CCC(N2C(=O)c3ccc(OCC#Cc4ccc(O[C@H]5C[C@H](Oc6ccc(-c7ccc8c(c7)[nH]c7ccncc78)cn6)C5)cn4)cc3C2=O)C(=O)N1` (stereo partly drawn) [Compound 73, 5-((3-(5-((1r,3r)-3-((5-(5H-pyrido[4,3-b]indol-7-yl)pyridin-2-yl)oxy)cyclobutoxy)pyridin-2-yl)prop-2-yn-1-yl)oxy)-2-(2,6-dioxopiperidin-3-yl)isoindoline-1,3-dione], the “Degradation activity* (highest amount of degradation observed at any dosage; tau protein remaining)” value is recorded as “A (≤50% tau protein remaining after 72 hours of incubation with the test compound)”. In the case of `Cn1c2ccncc2c2ccc(-c3ccc(O[C@H]4C[C@H](OC5CCN(c6cccc(CCCOc7ccc8c(c7)C(=O)N(C7CCC(=O)NC7=O)C8=O)c6)CC5)C4)nc3)cc21` (stereo partly drawn) [Compound 205, 2-(2,6-dioxopiperidin-3-yl)-5-(3-(3-(4-((1r,3r)-3-((5-(5-methyl-5H-pyrido[4,3-b]indol-7-yl)pyridin-2-yl)oxy)cyclobutoxy)piperidin-1-yl)phenyl)propoxy)isoindoline-1,3-dione], the “Degradation activity (tau protein remaining; highest amount of degradation observed at any dosage)” value is on record as “A (≤50% tau protein remaining after 72 hours of incubation with the test compound)”.

Take `Cn1c2ccncc2c2ccc(-c3ccc(O[C@H]4C[C@H](N(C)C5CC6(C5)CN(C(=O)CCCCOc5ccc7c(c5)C(=O)N(C5CCC(=O)NC5=O)C7=O)C6)C4)nc3)cc21` (stereo partly drawn) [Compound 137, 2-(2,6-dioxopiperidin-3-yl)-5-((5-(6-(methyl((1r,3r)-3-((5-(5-methyl-5H-pyrido[4,3-b]indol-7-yl)pyridin-2-yl)oxy)cyclobutyl)amino)-2-azaspiro[3.3]heptan-2-yl)-5-oxopentyl)oxy)isoindoline-1,3-dione]: the “Degradation activity* (highest amount of degradation observed at any dosage; tau protein remaining)” value is “C (>80% tau protein remaining after 72 hours of incubation with the test compound)”. Consider `O=C1CCC(N2C(=O)c3ccc(OCCOCC#Cc4ccc(O[C@H]5C[C@H](Oc6ccc(-c7ccc8c(c7)[nH]c7ccncc78)cn6)C5)cc4)cc3C2=O)C(=O)N1` (stereo partly drawn) [Compound 188, 5-(2-((3-(4-((1r,3r)-3-((5-(5H-pyrido[4,3-b]indol-7-yl)pyridin-2-yl)oxy)cyclobutoxy)phenyl)prop-2-yn-1-yl)oxy)ethoxy)-2-(2,6-dioxopiperidin-3-yl)isoindoline-1,3-dione], for which the “Degradation activity (tau protein remaining; highest amount of degradation observed at any dosage)” value is “B (≤80% and >50% tau protein remaining after 72 hours of incubation with the test compound)”.

In the case of `Cn1c2ccncc2c2ccc(-c3ccc(O[C@H]4C[C@H](Oc5ccc(C#CCOC6CN(c7ccc8c(c7)C(=O)N(C7CCC(=O)NC7=O)C8=O)C6)nc5)C4)nc3)cc21` (stereo partly drawn) [Compound 111, 2-(2,6-dioxopiperidin-3-yl)-5-(3-((3-(5-((1r,3r)-3-((5-(5-methyl-5H-pyrido[4,3-b]indol-7-yl)pyridin-2-yl)oxy)cyclobutoxy)pyridin-2-yl)prop-2-yn-1-yl)oxy)azetidin-1-yl)isoindoline-1,3-dione], the “Degradation activity* (highest amount of degradation observed at any dosage; tau protein remaining)” value is reported as “C (>80% tau protein remaining after 72 hours of incubation with the test compound)”. For the compound `Cn1c2ccncc2c2ccc(-c3ccc(O[C@H]4C[C@H](OC5CCN(CC(F)(F)CCCOc6ccc7c(c6)C(=O)N(C6CCC(=O)NC6=O)C7=O)CC5)C4)nc3)cc21` (stereo partly drawn) [Compound 171, 5-((4,4-difluoro-5-(4-((1r,3r)-3-((5-(5-methyl-5H-pyrido[4,3-b]indol-7-yl)pyridin-2-yl)oxy)cyclobutoxy)piperidin-1-yl)pentyl)oxy)-2-(2,6-dioxopiperidin-3-yl)isoindoline-1,3-dione], the “Degradation activity (tau protein remaining; highest amount of degradation observed at any dosage)” value is on record as “C (>80% tau protein remaining after 72 hours of incubation with the test compound)”. The same measure, in the same setting: the entry for `O=C1CCC(N2Cc3cc(OCC#Cc4ccc(O[C@H]5C[C@H](Oc6ccc(-c7ccc8c(c7)[nH]c7ccncc78)cn6)C5)cn4)ccc3C2=O)C(=O)N1` (stereo partly drawn) [Compound 180, 3-(5-((3-(5-((1r,3r)-3-((5-(5H-pyrido[4,3-b]indol-7-yl)pyridin-2-yl)oxy)cyclobutoxy)pyridin-2-yl)prop-2-yn-1-yl)oxy)-1-oxoisoindolin-2-yl)piperidine-2,6-dione] is “A (≤50% tau protein remaining after 72 hours of incubation with the test compound)”. For the compound `O=C1CCC(N2C(=O)c3ccc(OCCCCCOC4CCN(C(=O)[C@H]5C[C@H](Oc6ccc(-c7ccc8c(c7)[nH]c7ccncc78)cn6)C5)CC4)cc3C2=O)C(=O)N1` (stereo partly drawn) [Compound 165, 5-((5-((1-((1r,3r)-3-((5-(5H-pyrido[4,3-b]indol-7-yl)pyridin-2-yl)oxy)cyclobutane-1-carbonyl)piperidin-4-yl)oxy)pentyl)oxy)-2-(2,6-dioxopiperidin-3-yl)isoindoline-1,3-dione], the “Degradation activity* (highest amount of degradation observed at any dosage; tau protein remaining)” value is reported as “C (>80% tau protein remaining after 72 hours of incubation with the test compound)”.

Regarding `Cn1c2ccncc2c2ccc(-c3cnc(OCCOCCOCCOCCOCCOc4ccc5c(c4)C(=O)N(C4CCC(=O)NC4=O)C5=O)c(C#N)c3)cc21` (stereo not drawn) [Compound 203, 2-((14-((2-(2,6-dioxopiperidin-3-yl)-1,3-dioxoisoindolin-5-yl)oxy)-3,6,9,12-tetraoxatetradecyl)oxy)-5-(5-methyl-5H-pyrido[4,3-b]indol-7-yl)nicotinonitrile], the “Degradation activity (tau protein remaining; highest amount of degradation observed at any dosage)” value was “A (≤50% tau protein remaining after 72 hours of incubation with the test compound)”. For the compound `Cn1c2ccncc2c2ccc(-c3ccc(OCCCCCOCCOC(CC4CCN(c5ccc6c(c5)C(=O)N(C5CCC(=O)NC5=O)C6=O)CC4)C(F)(F)F)nc3)cc21` (stereo not drawn) [Compound 89, 2-(2,6-dioxopiperidin-3-yl)-5-(4-(3,3,3-trifluoro-2-(2-((5-((5-(5-methyl-5H-pyrido[4,3-b]indol-7-yl)pyridin-2-yl)oxy)pentyl)oxy)ethoxy)propyl)piperidin-1-yl)isoindoline-1,3-dione], the “Degradation activity* (highest amount of degradation observed at any dosage; tau protein remaining)” value is reported as “C (>80% tau protein remaining after 72 hours of incubation with the test compound)”. Same read-out and setting: to `Cn1c2ccncc2c2ccc(-c3ccc(O[C@H]4C[C@H](Oc5cnc(C#CCCCCOc6ccc7c(c6)C(=O)N(C6CCC(=O)NC6=O)C7=O)nc5)C4)nc3)cc21` (stereo partly drawn) [Compound 141, 2-(2,6-dioxopiperidin-3-yl)-5-((6-(5-((1r,3r)-3-((5-(5-methyl-5H-pyrido[4,3-b]indol-7-yl)pyridin-2-yl)oxy)cyclobutoxy)pyrimidin-2-yl)hex-5-yn-1-yl)oxy)isoindoline-1,3-dione] belongs “C (>80% tau protein remaining after 72 hours of incubation with the test compound)”.

Staying with this experiment, now noted: SK-N-SH cells; 72 hours of incubation; tested at 1000 nM, 300 nM and 100 nM.
Regarding `Cc1ncsc1-c1ccc(CNC(=O)[C@@H]2C[C@@H](O)CN2C(=O)[C@@H](NC(=O)COCCOCCOCCOCCCOc2ccc3nc(-c4ccc(N(C)C)cc4)ccc3c2)C(C)(C)C)cc1` [Compound 9, (2S,4R)-1-((S)-2-tert-butyl-18-(2-(4-(dimethylamino)phenyl)quinolin-6-yloxy)-4-oxo-6,9,12,15-tetraoxa-3-azaoctadecane)-4-hydroxy-N-(4-(4-methylthiazol-5-yl)benzyl)pyrrolidine-2-carboxamide], the “Activity* (highest amount of degradation observed at any dosage, as tau protein remaining)” value is on record as “C (>80% tau protein remaining after 72 hours of incubation with the test compound)”. The same measure, in the same setting: to `Cc1ncsc1-c1ccc([C@H](C)NC(=O)[C@@H]2C[C@@H](O)CN2C(=O)[C@@H](NC(=O)COCCOCCOCCOCCOc2ccc3nc(-c4ccc(N(C)C)cc4)ccc3c2)C(C)(C)C)cc1` [Compound 32, (2S,4R)-1-((S)-2-tert-butyl-17-(2-(4-(dimethylamino)phenyl)quinolin-6-yloxy)-4-oxo-6,9,12,15-tetraoxa-3-azaheptadecane)-4-hydroxy-N—((S)-1-(4-(4-methylthiazol-5-yl)phenyl)ethyl)pyrrolidine-2-carboxamide] belongs “C (>80% tau protein remaining after 72 hours of incubation with the test compound)”. Consider `CN(C)c1ccc(-c2ccc3cc(OCCCOCCOCCOCCNc4cccc5c4C(=O)N(C4CCC(=O)NC4=O)C5=O)ccc3n2)cc1` (stereo not drawn) [Compound 44, 4-(2-(2-(2-(3-(2-(4-(dimethylamino)phenyl)quinolin-6-yloxy)propoxy)ethoxy)ethoxy)ethylamino)-2-(2,6-dioxopiperidin-3-yl)isoindoline-1,3-dione], for which the “Activity* (highest amount of degradation observed at any dosage, as tau protein remaining)” value is listed as “C (>80% tau protein remaining after 72 hours of incubation with the test compound)”. On the same count and under the same terms, the entry for `O=C1CCC(N2C(=O)c3cccc(NCCOCCOCCOCCOCC(=O)N4CCN(c5ccn6c(n5)nc5ccccc56)CC4)c3C2=O)C(=O)N1` (stereo not drawn) [Compound 42, 4-((14-(4-(benzo[4,5]imidazo[1,2-a]pyrimidin-2-yl)piperazin-1-yl)-14-oxo-3,6,9,12-tetraoxatetradecyl)amino)-2-(2,6-dioxopiperidin-3-yl)isoindoline-1,3-dione] is “C (>80% tau protein remaining after 72 hours of incubation with the test compound)”.
